The values that follow are results of earlier work, collected in patent publication US20030180354A1 (DR. REDDY'S LABORATORIES LIMITED, priority 2001, published 2003).

The conditions of the series: in man.

With `CCOC(=O)C1=C(COCCN)NC(C)=C(C(=O)OC)C1c1ccccc1Cl` (racemic) [Amlodipine, (±)-2-[(2-Aminoethoxy)methyl]-4-(2-chlorophenyl)-3-ethoxycarbonyl-5-methoxycarbonyl-6-methyl-1,4-dihydropyridine], the Oral bioavailability is 64%.
